Measurements: patent US20100076015A1, “Aminopyridine Derivatives” (VANTIA LIMITED, priority 2008, published 2010)

Biological target: T1, Human KLK1 (Homo sapiens, UniProt P06870)
T1 construct: purchased Callbiochem (Calbiochem)
Assay: Determination of the IC50 for KLK1 (fluorogenic substrate H-DVal-Leu-Arg-AFC)
Assay type: biochemical
Settings: 37° C.
Summary of the method: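 Test compound at various concentrations was incubated with human KLK1 and the fluorogenic substrate H-DVal-Leu-Arg-AFC at 37° C. Absorbance change at 410 nm gave the initial reaction rate, from which IC50 was obtained.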

T1 sequence (P06870 25-262): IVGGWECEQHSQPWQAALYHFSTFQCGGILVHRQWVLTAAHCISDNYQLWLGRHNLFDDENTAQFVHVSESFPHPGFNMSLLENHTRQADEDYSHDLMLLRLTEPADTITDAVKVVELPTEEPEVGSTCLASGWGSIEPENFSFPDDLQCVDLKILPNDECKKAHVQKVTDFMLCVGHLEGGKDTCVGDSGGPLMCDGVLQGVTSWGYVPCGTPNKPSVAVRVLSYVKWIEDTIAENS

SMILES	IC50 [nM]
CCC(C)[C@H](C(=O)N[C@@H](Cc1cccc(F)c1)C(=O)NCc1ccc(N)nc1)N(C)C (stereo partly drawn) [Example 377, (R)-2-Dimethylamino-3-methyl-pentanoic acid [(S)-1-[(6-amino-pyridin-3-ylmethyl)-carbamoyl]-2-(3-fluoro-phenyl)-ethyl]-amide]	32.2
Nc1ccc(CNC(=O)[C@H](Cc2ccc(F)cc2)NC(=O)CN2CCCCC2)cn1 [Example 379, (S)—N-(6-Amino-pyridin-3-ylmethyl)-3-(4-fluoro-phenyl)-2-(2-piperidin-1-yl-acetylamino)-propionamide]	128
CN1CCC[C@H]1C(=O)N[C@@H](CC1CCCCC1)C(=O)NCc1ccc(N)nc1 [Example 382, (S)-1-Methyl-pyrrolidine-2-carboxylic acid {(S)-1-[(6-amino-pyridin-3-ylmethyl)-carbamoyl]-2-cyclohexyl-ethyl}-amide]	48.6
CCCN(C)[C@@H](C)C(=O)N[C@@H](CC1CCCCC1)C(=O)NCc1ccc(N)nc1 [Example 383, (S)—N-{(S)-1-[(6-Amino-pyridin-3-ylmethyl)-carbamoyl]-2-cyclohexyl-ethyl}-2-(methyl-propyl-amino)-propionamide]	45.9
CCCN(CCC)[C@@H](C)C(=O)N[C@@H](CC1CCCCC1)C(=O)NCc1ccc(N)nc1 [Example 385, (S)—N-{(S)-1-[(6-Amino-pyridin-3-ylmethyl)-carbamoyl]-2-cyclohexyl-ethyl}-2-dipropylaminopropionamide]	107
CN(C)[C@@H](CO)C(=O)N[C@@H](CC1CCCCC1)C(=O)NCc1ccc(N)nc1 [Example 386, (S)—N-{(S)-1-[(6-Amino-pyridin-3-ylmethyl)-carbamoyl]-2-cyclohexyl-ethyl}-2-dimethylamino-3-hydroxy-propionamide]	260
CCN(C)[C@@H](CO)C(=O)N[C@@H](CC1CCCCC1)C(=O)NCc1ccc(N)nc1 [Example 387, (S)—N-{(S)-1-[(6-Amino-pyridin-3-ylmethyl)-carbamoyl]-2-cyclohexyl-ethyl}-2-(ethyl-methyl-amino)-3-hydroxy-propionamide]	170
CCN(CC)[C@@H](CO)C(=O)N[C@@H](CC1CCCCC1)C(=O)NCc1ccc(N)nc1 [Example 389, (S)—N-{(S)-1-[(6-Amino-pyridin-3-ylmethyl)-carbamoyl]-2-cyclohexyl-ethyl}-2-diethylamino-3-hydroxy-propionamide]	42.9
C[C@@H](C(=O)N[C@@H](CC1CCCCC1)C(=O)NCc1ccc(N)nc1)N(C)C [Example 391, (S)—N-{(S)-1-[(6-Amino-pyridin-3-ylmethyl)-carbamoyl]-2-cyclohexyl-ethyl}-2-dimethylamino-propionamide]	49.4
CC1CCCC(C)N1CC(=O)N[C@@H](CC1CCCCC1)C(=O)NCc1ccc(N)nc1 (stereo partly drawn) [Example 392, (S)—N-(6-Amino-pyridin-3-ylmethyl)-3-cyclohexyl-2-[2-(2,6-dimethyl-piperidin-1-yl)-acetylamino]-propionamide]	47.2
CC(C)N(CC(=O)N[C@@H](CC1CCCCC1)C(=O)NCc1ccc(N)nc1)C(C)C [Example 393, (S)—N-(6-Amino-pyridin-3-ylmethyl)-3-cyclohexyl-2-(2-diisopropylamino-acetylamino)-propionamide]	26.9
CN(C)[C@H](Cc1ccccc1)C(=O)N[C@@H](CC1CCCC2CCCCC21)C(=O)NCc1ccc(N)nc1 (stereo partly drawn) [Example 397, (R)—N-[(S)-1-[(6-Amino-pyridin-3-ylmethyl)-carbamoyl]-2-(decahydro-naphthalen-1-yl)-ethyl]-2-dimethylamino-3-phenyl-propionamide]	44.2

The next compounds have a lower IC50 than those just listed; values first:

IC50 [nM]	SMILES
2.7	CCN(CC)[C@@H](C)C(=O)N[C@@H](Cc1ccc(F)cc1)C(=O)NCc1ccc(N)nc1 [Example 376, (S)—N-[(S)-1-[(6-Amino-pyridin-3-ylmethyl)-carbamoyl]-2-(4-fluoro-phenyl)-ethyl]-2-diethylamino-propionamide]
2.5	CC1CCCC(C)N1CC(=O)N[C@@H](Cc1ccc(F)cc1)C(=O)NCc1ccc(N)nc1 (stereo partly drawn) [Example 378, (S)—N-(6-Amino-pyridin-3-ylmethyl)-2-[2-(2,6-dimethyl-piperidin-1-yl)-acetylamino]-3-(4-fluoro-phenyl)-propionamide]
13.9	CCN(CC)CC(=O)N[C@@H](Cc1ccc(F)cc1)C(=O)NCc1ccc(N)nc1 [Example 380, (S)—N-(6-Amino-pyridin-3-ylmethyl)-2-(2-diethylamino-acetylamino)-3-(4-fluoro-phenyl)-propionamide]
9.7	CCN(C)[C@@H](C)C(=O)N[C@@H](CC1CCCCC1)C(=O)NCc1ccc(N)nc1 [Example 384, (S)—N-{(S)-1-[(6-Amino-pyridin-3-ylmethyl)-carbamoyl]-2-cyclohexyl-ethyl}-2-(ethyl-methyl-amino)-propionamide]
22.2	CC(C)N(C)[C@@H](CO)C(=O)N[C@@H](CC1CCCCC1)C(=O)NCc1ccc(N)nc1 [Example 388, (S)—N-{(S)-1-[(6-Amino-pyridin-3-ylmethyl)-carbamoyl]-2-cyclohexyl-ethyl}-3-hydroxy-2-(isopropyl-methyl-amino)-propionamide]
8.4	CC(C)N(CC(=O)N[C@@H](CC1CCCC2CCCCC21)C(=O)NCc1ccc(N)nc1)C(C)C (stereo partly drawn) [Example 394, (S)—N-(6-Amino-pyridin-3-ylmethyl)-3-(decahydro-naphthalen-1-yl)-2-(2-diisopropylamino-acetylamino)-propionamide]
0.17	CC(C)N(C)[C@@H](C)C(=O)N[C@@H](CC1CCCC2CCCCC21)C(=O)NCc1ccc(N)nc1 (stereo partly drawn) [Example 395, (S)—N-[(S)-1-[(6-Amino-pyridin-3-ylmethyl)-carbamoyl]-2-(decahydro-naphthalen-1-yl)-ethyl]-2-(isopropyl-methyl-amino)-propionamide]
1.4	CN1CCC[C@@H]1C(=O)N[C@@H](CC1CCCC2CCCCC21)C(=O)NCc1ccc(N)nc1 (stereo partly drawn) [Example 396, (R)-1-Methyl-pyrrolidine-2-carboxylic acid [(S)-1-[(6-amino-pyridin-3-ylmethyl)-carbamoyl]-2-(decahydro-naphthalen-1-yl)-ethyl]-amide]
0.74	CC(C)[C@H](C(=O)N[C@@H](Cc1ccc(Cl)c(Cl)c1)C(=O)NCc1ccc(N)nc1)N(C)C [Example 399, (R)—N-[(S)-1-[(6-Amino-pyridin-3-ylmethyl)-carbamoyl]-2-(3,4-dichloro-phenyl)-ethyl]-2-dimethylamino-3-methyl-butyramide]
0.16	CC(C)N(C)[C@@H](C)C(=O)N[C@@H](Cc1ccc(Cl)c(Cl)c1)C(=O)NCc1ccc(N)nc1 [Example 401, (S)—N-[(S)-1-[(6-Amino-pyridin-3-ylmethyl)-carbamoyl]-2-(3,4-dichloro-phenyl)-ethyl]-2-(isopropyl-methyl-amino)-propionamide]
13	C[C@H](C(=O)N[C@@H](Cc1ccc(Cl)c(Cl)c1)C(=O)NCc1ccc(N)nc1)N1CCCCC1 [Example 402, (R)—N-[(S)-1-[(6-Amino-pyridin-3-ylmethyl)-carbamoyl]-2-(3,4-dichloro-phenyl)-ethyl]-2-piperidin-1-yl-propionamide]
1.1	C[C@@H](C(=O)N[C@@H](Cc1ccc(Cl)c(Cl)c1)C(=O)NCc1ccc(N)nc1)N1CCCCC1 [Example 403, (S)—N-[(S)-1-[(6-Amino-pyridin-3-ylmethyl)-carbamoyl]-2-(3,4-dichloro-phenyl)-ethyl]-2-piperidin-1-yl-propionamide]
